Values of other authors in US20250369953A1, “METHODS FOR MEASURING CIRCADIAN RHYTHM FACTORS” (priority 2024, published 2025).

**Q.** With COc1ccc2[nH]cc(CCNC(C)=O)c2c1 [Melatonin, N-acetyl-5-methoxytryptamine] as the compound, how does the peak plasma concentrations (endogenous, nighttime sleep, occurring at approximately 02:00 am) read?
**A.** approximately 70 μg/ml

**Q.** What about the metabolic clearance (healthy young adult humans) of the same compound?
**A.** approximately 1 liter per minute

**Q.** And the volume of distribution (healthy young adult humans)?
**A.** approximately 40 liters
